According to PMC13070491, “Single-nucleus transcriptomics, pharmacokinetics, and pharmacodynamics of CDK4/6 and mTOR inhibition in a Phase 0/1 trial of recurrent high-grade glioma” (Neuro-Oncology, 2025):
“And” between values parts separate entries of the source, which are not always exact repeats. Equal entries are not always repeated.

How the values were obtained:
pRb = experiment: IHC of tumor tissue, pRb positive cells, archival vs Phase 0 surgical sample; format: in vivo, human; details: IDH-wildtype patients n = 20; paired t-test P = .25; 5 days ribociclib + everolimus
[1] = 900 mg QD 5 days monotherapy; ref Tien A, Clin Cancer Res 2019; cited from earlier work
GB239 = experiment: Ribociclib-treated in vitro single-cell RNA sequencing, malignant state proportions; format: cell-based, human; details: ribociclib vs DMSO 5 days
Excerpt: (§1) Patient-derived glioma stem cell lines (GSCs; GB126, GB86, and GB239) were established from resected GBM tumor tissue. Cell lines were genetically profiled for mutations and copy number aberrations using the […] custom gene panel. All cell lines harbored high-level CDK4 amplifications among other alterations. […] The single-cell RNA sequencing data were then processed via cellranger count and Seurat. Briefly, cells were filtered out based on the following criteria: minimum number of genes detected >500 and <10 000 with a maximum percentage of mitochondrial genes set to 10%. Statistical assessment was made between the malignant proportions of each cell state using a 2-sided paired t-test.

GB126 = experiment: as above; format: cell-based, human; details: ribociclib vs DMSO 5 days
Excerpt: as §1

GB86 = experiment: as above; format: cell-based, human; details: ribociclib vs DMSO 5 days
Excerpt: as §1

[2] = Plasma pharmacokinetic parameters (LC-MS/MS); details: plasma; for AUC(0-t) / Cmax / half-life / Tmax: human, oral; for AUC(0-t): Total Ribociclib AUClast; for Cmax: Total Ribociclib Cmax
Experimental: Pharmacokinetic evaluation was conducted as previously described[8] using a validated liquid chromatography with tandem mass spectrometry (LC-MS/MS) method.[16] […] CSF samples were intraoperatively collected.

pS6 ribosomal protein = experiment: IHC of tumor tissue, pS6 ribosomal protein positive cells; format: in vivo, human; details: 5 days ribociclib + everolimus; paired t-test P > .05
Experimental: Everolimus pharmacodynamic biomarkers were assessed using IHC with the following antibodies: anti-p4EBP1 (Cell Signaling Technology; #2855, 1:500); anti-pS6 ribosomal protein (Cell Signaling -Technology; #4858, 1:100). IHC staining was performed using the BOND RX automated system (Leica Biosystems) as previously described.[8] Stained slides were imaged on a Leica Versa microscope and analyzed with Aperio Image software. Percentage of stain-positive cells was quantified from at least 6 randomly selected regions of interest within the tumor as assessed by a board-certified neuropathologist.

Ki-67 = experiment: IHC of tumor tissue, percentage of Ki-67 positive cells, archival vs Phase 0 surgical sample; format: in vivo, human
[3] = Adverse events related to study treatment (CTCAE); format: in vivo, human
Experimental: Eligibility was determined based on previous clinical records, panel DNA sequencing, and IHC of archival tissue from a previous surgery (Figure 1, Supplementary Figure S2A).

[4] = test system: phosphorylated Rb protein in GB126, GB86 and GB239 glioma stem cell lines; experiment: Determination of ribociclib dose in vitro (phosphorylated Rb, Western blotting); format: cell-based, human; details: 5 days, tested 0.5, 1 and 5 μM
Experimental: Patient-derived glioma stem cell lines (GSCs; GB126, GB86, and GB239) were established from resected GBM tumor tissue. Cell lines were genetically profiled for mutations and copy number aberrations using the IvySeq custom gene panel. […] GB239 was derived from a tumor sample included in this Phase 0 trial (tumor sample: 100-0039). All human GSCs were cultured as described previously.[12]

CDK4/6 = details: threshold basis for Phase 1 expansion; no reference given; read-out: biochemical IC50; cited from earlier work
[5] = Dose Level 4: ribociclib 600mg QD 5 days + everolimus 50mg single dose, CTCAE grade 1
[6] = Dose Level 5: ribociclib 600mg QD 5 days + everolimus 60mg single dose, CTCAE grade 2

AUC(0-t) ([2]; 400 mg, Mean): 18.5 µM·h
AUC(0-t) ([2]; 400 mg, Median): 13.8 µM·h
Cmax ([2]; 400 mg, Median): 1320 nM
half-life ([2]; 400 mg, Total Ribociclib T1/2, plasma, Mean): 785 min
half-life ([2]; 400 mg, Total Ribociclib T1/2, plasma, Median): 682 min
half-life ([2]; 400 mg, Unbound Ribociclib T1/2, plasma, Mean): 677 min
half-life ([2]; 400 mg, Unbound Ribociclib T1/2, plasma, Median): 672 min
half-life ([2]; 400 mg, Unbound Ribociclib T1/2, plasma, individual patients): 422 min
Tmax ([2]; 400 mg, Unbound Ribociclib Tmax, Mean): 2.65 h
AUC(0-t) ([2]; 600 mg, Mean): 28.4 µM·h
Cmax ([2]; 600 mg, Mean): 2190 nM
Cmax ([2]; 600 mg, Median): 1810 nM
half-life ([2]; 600 mg, Total Ribociclib T1/2, plasma, Mean): 1040 min
Tmax ([2]; 600 mg, Total Ribociclib Tmax, Mean): 3.23 h
half-life ([2]; 600 mg, Unbound Ribociclib T1/2, plasma, Median): 692 min
Tmax ([2]; 600 mg, Unbound Ribociclib Tmax, Mean): 4.76 h
Total Ribociclib CL/F ([2]; 400 mg, Mean): 62.22 L/h
Total Ribociclib Tmax ([2]; 400 mg, Mean): 3.00 h
Unbound Ribociclib Cmax ([2]; 400 mg, Mean): 0.29 µmol/L
Total Ribociclib CL/F ([2]; 400 mg, Median): 66.79 L/h
Unbound Ribociclib Cmax ([2]; 400 mg, Median): 0.23 µmol/L
Unbound Ribociclib T1/2 ([2]; 400 mg, individual patients): 15.62 h and 13.50 h and 9.01 h
Total Ribociclib CL/F ([2]; 600 mg, Mean): 59.77 L/h
Unbound Ribociclib Cmax ([2]; 600 mg, Mean): 0.32 µmol/L
Unbound Ribociclib T1/2 ([2]; 600 mg, Mean): 15.49 h
Total Ribociclib CL/F ([2]; 600 mg, Median): 55.14 L/h
Unbound Ribociclib Cmax ([2]; 600 mg, Median): 0.28 µmol/L
Total Ribociclib Tmax ([2]; 600 mg, individual patients): 3.98 h and 1.67 h and 4.00 h
Structure (SMILES): CN(C)C(=O)c1cc2cnc(Nc3ccc(N4CCNCC4)cn3)nc2n1C1CCCC1 [Ribociclib, ribociclib]
change in phosphorylated Rb, surgical samples vs matched archival tissue (pRb): nonsignificant decrease
Total Ribociclib concentration, CSF, Maximum [1]: 838 nM
Total Ribociclib concentration, CSF, Median [1]: 267 nM
Total Ribociclib concentration, CSF, Minimum [1]: 43 nM
Total Ribociclib concentration, Enhancing tumor, Maximum [1]: 71.76 µM
Total Ribociclib concentration, Enhancing tumor, Median [1]: 29.252 µM
Total Ribociclib concentration, Enhancing tumor, Minimum [1]: 6.586 µM
Total Ribociclib concentration, Non-enhancing tumor, Maximum [1]: 31.424 µM
Total Ribociclib concentration, Non-enhancing tumor, Median [1]: 12.176 µM
Total Ribociclib concentration, Non-enhancing tumor, Minimum [1]: 452 nM
Unbound Ribociclib concentration, CSF, Maximum [1]: 645 nM
Unbound Ribociclib concentration, CSF, Median [1]: 152 nM
Unbound Ribociclib concentration, CSF, Minimum [1]: 18 nM
Unbound Ribociclib concentration, Enhancing tumor, Maximum [1]: 4.743 µM
Unbound Ribociclib concentration, Enhancing tumor, Median [1]: 1644 nM
Unbound Ribociclib concentration, Enhancing tumor, Minimum [1]: 307 nM
Unbound Ribociclib concentration, Non-enhancing tumor, Maximum [1]: 1295 nM
Unbound Ribociclib concentration, Non-enhancing tumor, Median [1]: 482 nM
change in cycling cells (GB239; paired t-test P = 5.4E-4): decrease
AC-like malignant state proportion (GB239; paired t-test P = .03): increase
MES-like malignant state proportion (GB126): increase
AC-like malignant state proportion (GB126; paired t-test P = 6.6E-3): increase
change in cycling cells (GB126; paired t-test P = 8.7E-4): decrease
change in cycling cells (GB86; paired t-test P = .04): decrease
AC-like malignant state proportion (GB86; paired t-test P = .06): increase
Total Ribociclib CL/F ([2]; 400 mg, individual patients): 65.30 L/h and 28.56 L/h and 68.28 L/h and 29.74 L/h and 83.61 L/h and 97.80 L/h
Unbound Ribociclib Cmax ([2]; 400 mg, individual patients): 0.31 µmol/L and 0.69 µmol/L and 0.15 µmol/L and 0.26 µmol/L and 0.12 µmol/L and 0.19 µmol/L
Total Ribociclib CL/F ([2]; 600 mg, individual patients): 22.31 L/h and 79.68 L/h and 49.86 L/h and 52.45 L/h and 57.05 L/h and 59.00 L/h and 104.11 L/h and 29.22 L/h and 48.20 L/h and 71.59 L/h and 35.82 L/h and 156.41 L/h and 47.05 L/h and 55.14 L/h and 66.74 L/h and 66.55 L/h and 50.38 L/h and 59.19 L/h and 24.80 L/h
Unbound Ribociclib Cmax ([2]; 600 mg, individual patients): 0.58 µmol/L and 0.28 µmol/L and 0.37 µmol/L and 0.29 µmol/L and 0.26 µmol/L and 0.34 µmol/L and 0.31 µmol/L and 0.73 µmol/L and 0.30 µmol/L and 0.22 µmol/L and 0.38 µmol/L and 0.09 µmol/L and 0.21 µmol/L and 0.18 µmol/L and 0.24 µmol/L and 0.23 µmol/L and 0.47 µmol/L
Unbound Ribociclib T1/2 ([2]; 600 mg, individual patients): 14.45 h and 9.00 h and 8.65 h and 15.15 h and 15.94 h and 42.32 h
mTOR pathway activity as quantified by pS6, surgical specimen vs archival tissue (pS6 ribosomal protein): elevated but not significantly different
change in proliferative Ki-67 marker, surgical samples vs matched archival tissue (Ki-67; IDH-wildtype patients n = 20, paired t-test P = .02, 5 days ribociclib + everolimus): significant decrease
median decrease in Ki-67 (Ki-67; ribociclib 400 mg): 2.93%
median decrease in Ki-67 (Ki-67; ribociclib 600 mg): 8.94%
Dizziness, No. Patients Affected [3, 5]: 1
Photophobia, No. Patients Affected [3, 5]: 1
Platelet count decreased, No. Patients Affected ([3]; Dose Level 5: ribociclib 600mg QD 5 days + everolimus 60mg single dose, CTCAE grade 1): 1
Nausea, No. Patients Affected [3, 6]: 1
Pancytopenia (serious adverse event), No. Patients Affected [3, 6]: 1
Electrocardiogram QT prolonged, No. Patients Affected ([3]; Dose Level 6: ribociclib 600mg QD 5 days + everolimus 70mg single dose, CTCAE grade 1): 1
dose per cell line that achieved a 50% inhibition of pRb [4]: 0.5-5 µM
IC50 (CDK4/6): 40 nM
